≈ marks a conversion by molar mass, not a printed value.
Key:
[1] = Inhibition of STT3A/STT3B mediated N-linked glycosylation in human H1-HeLa cells stably transduced with ERluc by measuring effective concentration of inhibition incubated for 18 hrs by One-Glo luciferase reporter assay; assay type: cell-based
[2] = Chromatographic hydrophobicity index, logD of the compound at pH 7.4; assay type: physicochemical; conditions: buffer
[3] = Unbound clearance in human liver microsomes at 0.5 uM incubated upto 45 mins; assay type: ADME, Microsome; conditions: 0.75 h
[4] = Solubility of compound in FaSSIF; assay type: ADME
[5] = Unbound clearance in CD1 mouse at 2 mg/kg,po or 1 mg/kg,iv administrated upto 60 mins by LC-MS/MS analysis; assay type: ADME, organism-based; conditions: in vivo, 1 h
[6] = Volume of distribution at steady state in CD1 mouse at 2 mg/kg,po or 1 mg/kg,iv administrated upto 60 mins by LC-MS/MS analysis; assay type: ADME, organism-based; conditions: in vivo, 1 h
[7] = MRT in CD1 mouse at 2 mg/kg,po or 1 mg/kg,iv administrated upto 60 mins by LC-MS/MS analysis; assay type: ADME, organism-based; conditions: in vivo
[8] = Bioavailability in CD1 mouse at 2 mg/kg,po or 1 mg/kg,iv administrated upto 60 mins by LC-MS/MS analysis; assay type: ADME, organism-based; conditions: in vivo
[9] = Unbound clearance in mouse liver microsomes at 0.5 uM incubated upto 45 mins; assay type: ADME, Microsome; conditions: 0.75 h
[10] = tested on: Influenza A virus; assay: Antiviral activity against influenza A virus H1N1 A/Puerto Rico/8/1934 infected in MDCK cells assessed as reduction in viral proliferation incubated for 24 hrs by FFU assay; assay type: functional, organism-based; conditions: H1N1 A/Puerto Rico/8/1934, MDCK
[11] = tested on: Human coronavirus 229E; assay: Antiviral activity against Human coronavirus 229E infected in human MRC5 cells assessed as reduction in viral growth incubated for 68 hrs by CellTiter-Glo luminescence assay; assay type: functional, organism-based; conditions: MRC5, 68 h
[12] = tested on: SARS-CoV-2; assay: Antiviral activity against SARS-CoV-2 infected in human A549 cells assessed as reduction in viral growth incubated for 24 hrs by Nano-Glo reagent based analysis; assay type: functional, organism-based; conditions: Severe acute respiratory syndrome coronavirus 2, A549, 24 h
[13] = Cytotoxicity against human MRC5 cells by luminescence-based cell viability assay; assay type: toxicity
[14] = tested on: A549; assay: Cytotoxicity against human A549 cells; assay type: functional
[15] = tested on: Human respirovirus 3; assay: Antiviral activity against Human parainfluenza virus 3 JS infected in human A549 cells assessed as reduction in viral proliferation incubated for 44 hrs by Hoechst dye based fluorescence analysis; assay type: functional, organism-based; conditions: Human respirovirus 3, JS, A549, 44 h
[16] = tested on: A549; assay: Cytotoxicity against human A549 cells by fluorescent cell imaging assay; assay type: functional
[17] = tested on: Influenza A virus; assay: Antiviral activity against influenza A virus H1N1 A/Puerto Rico/8/1934 infected in MDCK cells assessed as reduction in viral replication measured after 30 hrs of post-infection by RT-qPCR analysis relative to control; assay type: functional; design: scale not given: the % may be the effect or the level left
[18] = tested on: Influenza A virus; assay: Antiviral activity against influenza A virus H1N1 A/Puerto Rico/8/1934 infected in MDCK cells assessed as reduction in viral replication measured after 3 hrs of post-infection by RT-qPCR analysis relative to control; assay type: functional; design: scale not given: the % may be the effect or the level left

Compound | EC50 [1] [nM] | EC50 [11] [nM] | EC50 [12] [nM] | CC50 [13] [nM] | CC50 [14] [nM] | other results
CN(C)S(=O)(=O)c1ccc(N2CCCC2)c(-c2cc3cc(F)ccc3[nH]2)c1 | 172 | – | – | – | – | –
CCS(=O)(=O)c1ccc(N2CC[C@H](O)C2)c(-c2cc3ccccc3[nH]2)c1 | 36 | 58 | 116 | 4110 | 3800 | chromatographic logD [2]: 4.3; CL free [3]: < 19 mL/min/kg; solubility [4]: 130 µg/mL (≈ 351 µM); CL free [5]: 706 mL/min/kg; Vdss [6]: 2.7 L/kg; MRT [7]: 1.4 h; bioavailability [8]: 33%; CL free [9]: < 49 mL/min/kg; EC50 [10]: 307 nM
Cc1ccc2cc(-c3cc(S(=O)(=O)N(C)CC(=O)NCCC4(CCNC(=O)O[C@@H]5CC/C=C/CCC5)N=N4)ccc3N3CCCC3)[nH]c2c1 | 827 | – | – | – | – | –
Cc1ccc2cc(-c3cc(S(=O)(=O)N(C)CC(=O)N4CCOCC4)ccc3N3CCCC3)[nH]c2c1 | 2 | 2 | 4 | 44 | 13 | EC50 [15]: 6 nM; CC50 [16]: 35 nM; Activity [17]: 60%; Activity [18]: >90%
CN(C)S(=O)(=O)c1ccc(N2CCCC2)c(C(=O)Nc2ncc(C3CC3)s2)c1 | 332 | – | – | – | – | –
Cc1ccc2[nH]c(-c3cc(S(=O)(=O)N(C)C)ccc3N3CCCC3)cc2c1 | 32 | – | – | – | – | –

From ChEMBL document CHEMBL5576149, “Discovery of Potent STT3A/B Inhibitors and Assessment of Their Multipathogen Antiviral Potential and Safety” (J Med Chem, 2024)
